Reference: patent US9771370B2, “Compounds for the inhibition of indoleamine-2,3-dioxygenase” (Merck Patent GmbH, priority 2014, dated 2017)

Target: Recombinant human IDO (Homo sapiens, UniProt P14902)
Experiment: Bridge-IT tryptophan fluorescence assay of human IDO-1 inhibition
Assay type: biochemical
Settings: recombinant human IDO 7.5 nM, L-tryptophan
How it was run: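 One variant ran L-Trp at 100 μM for 90 min at 37 °C. The other pre-incubated compound for 30 min at 25 °C, then ran 50 μM L-Trp for 60 min at 25 °C.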

Recombinant human IDO, sequence (P14902 whole entry): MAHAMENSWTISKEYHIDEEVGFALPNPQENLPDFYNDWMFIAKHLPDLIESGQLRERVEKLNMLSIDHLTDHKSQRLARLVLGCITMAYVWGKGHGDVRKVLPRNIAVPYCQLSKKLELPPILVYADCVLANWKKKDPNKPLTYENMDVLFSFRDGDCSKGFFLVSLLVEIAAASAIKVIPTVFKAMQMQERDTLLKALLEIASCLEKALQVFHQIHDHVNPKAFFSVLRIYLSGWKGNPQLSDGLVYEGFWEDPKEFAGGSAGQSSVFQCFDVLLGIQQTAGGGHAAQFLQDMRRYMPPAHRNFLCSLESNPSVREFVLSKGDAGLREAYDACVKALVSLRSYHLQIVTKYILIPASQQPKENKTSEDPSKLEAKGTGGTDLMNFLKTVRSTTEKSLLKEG

## CC(C)[C@H](N)C(=O)N1CCC(F)(CCC2c3ccccc3-c3cncn32)CC1 (single isomer, unassigned) [Compound 89b]
  IC50: > 1000 nM

## FC1(CCC2c3c(Cl)cccc3-c3cncn32)CCC2(CC1)CC2 (single isomer, unassigned) [Compound 91a, 6-chloro-5-(2-[6-fluorospiro[2.5]octan-6-yl]ethyl)-5H-imidazo[4,3-a]isoindole]
  IC50: > 1000 nM

## FC1(CCC2c3c(Cl)cccc3-c3cncn32)CCC2(CC1)CC2 (single isomer, unassigned) [Compound 91b, 6-chloro-5-(2-[6-fluorospiro[2.5]octan-6-yl]ethyl)-5H-imidazo[4,3-a]isoindole]
  IC50: > 1000 nM

## OC(CC1c2ncccc2-c2cncn21)C1CCOCC1 (single isomer, unassigned) [Compound 92a, 1-(oxan-4-yl)-2-[4,6,9-triazatricyclo[6.4.0.0^[2,6]]dodeca-1(8),2,4,9,11-pentaen-7-yl]ethan-1-ol]
  IC50: > 1000 nM

## OC(CC1c2ncccc2-c2cncn21)C1CCOCC1 (single isomer, unassigned) [Compound 92b, 1-(oxan-4-yl)-2-[4,6,9-triazatricyclo[6.4.0.0^[2,6]]dodeca-1(8),2,4,9,11-pentaen-7-yl]ethan-1-ol]
  IC50: > 1000 nM

## OC(CC1c2ncccc2-c2cncn21)C1CCOCC1 (single isomer, unassigned) [Compound 92c, 1-(oxan-4-yl)-2-[4,6,9-triazatricyclo[6.4.0.0^[2,6]]dodeca-1(8),2,4,9,11-pentaen-7-yl]ethan-1-ol]
  IC50: > 1000 nM

## OC(CC1c2ncccc2-c2cncn21)C1CCOCC1 (single isomer, unassigned) [Compound 92d, 1-(oxan-4-yl)-2-[4,6,9-triazatricyclo[6.4.0.0^[2,6]]dodeca-1(8),2,4,9,11-pentaen-7-yl]ethan-1-ol]
  IC50: > 1000 nM

## FC1(CCC2c3ncccc3-c3cncn32)CCOCC1 (single isomer, unassigned) [Compound 93a, 7-[2-(4-fluorooxan-4-yl)ethyl]-4,6,9-triazatricyclo[6.4.0.0^[2,6]]dodeca-1(8),2,4,9,11-pentaene]
  IC50: > 1000 nM

## FC1(CCC2c3ncccc3-c3cncn32)CCOCC1 (single isomer, unassigned) [Compound 93b, 7-[2-(4-fluorooxan-4-yl)ethyl]-4,6,9-triazatricyclo[6.4.0.0^[2,6]]dodeca-1(8),2,4,9,11-pentaene]
  IC50: > 1000 nM

## FC1(CCC2c3ccccc3-c3cncn32)CCOCC1 (single isomer, unassigned) [Compound 94a, 5-[2-(4-fluorooxan-4-yl)ethyl]-5H-imidazo[4,3-a]isoindole]
  IC50: > 1000 nM

## FC1(CCC2c3ccccc3-c3cncn32)CCOCC1 (single isomer, unassigned) [Compound 94b, 5-[2-(4-fluorooxan-4-yl)ethyl]-5H-imidazo[4,3-a]isoindole]
  IC50: < 100 nM

## Fc1cccc2c1C(CCC1(F)CCOCC1)n1cncc1-2 (single isomer, unassigned) [Compound 95a, 6-fluoro-5-[2-(4-fluorooxan-4-yl)ethyl]-5H-imidazo[4,3-a]isoindole]
  IC50: > 1000 nM

## Fc1cccc2c1C(CCC1(F)CCOCC1)n1cncc1-2 (single isomer, unassigned) [Compound 95b, 6-fluoro-5-[2-(4-fluorooxan-4-yl)ethyl]-5H-imidazo[4,3-a]isoindole]
  IC50: 100 to 1000 nM

## FC1(CCC2c3c(Cl)cccc3-c3cncn32)CCOCC1 (single isomer, unassigned) [Compound 96a, 6-chloro-5-[2-(4-fluorooxan-4-yl)ethyl]-5H-imidazo[4,3-a]isoindole]
  IC50: > 1000 nM

## FC1(CCC2c3c(Cl)cccc3-c3cncn32)CCOCC1 (single isomer, unassigned) [Compound 96b, 6-chloro-5-[2-(4-fluorooxan-4-yl)ethyl]-5H-imidazo[4,3-a]isoindole]
  IC50: 100 to 1000 nM

## FC(CC1c2ncccc2-c2cncn21)C1CCCCC1 (single isomer, unassigned) [Compound 97a, 7-[2-cyclohexyl-2-fluoroethyl]-4,6,9-triazatricyclo[6.4.0.0^[2,6]]dodeca-1(8),2,4,9,11-pentaene]
  IC50: > 1000 nM
